Reference: ChEMBL document CHEMBL2434832, “Structure-based identification of novel PPAR gamma ligands” (Bioorg Med Chem Lett, 2013)

Key:
[1] = biological target: T1, Peroxisome proliferator-activated receptor gamma (Homo sapiens) (UniProt P37231); assay: Binding affinity to human PPARgamma LBD expressed in Escherichia coli BL21 DE3 assessed as melting temperature at 33 uM after 2 hrs using SYPRO orange dye
T1 sequence (whole entry): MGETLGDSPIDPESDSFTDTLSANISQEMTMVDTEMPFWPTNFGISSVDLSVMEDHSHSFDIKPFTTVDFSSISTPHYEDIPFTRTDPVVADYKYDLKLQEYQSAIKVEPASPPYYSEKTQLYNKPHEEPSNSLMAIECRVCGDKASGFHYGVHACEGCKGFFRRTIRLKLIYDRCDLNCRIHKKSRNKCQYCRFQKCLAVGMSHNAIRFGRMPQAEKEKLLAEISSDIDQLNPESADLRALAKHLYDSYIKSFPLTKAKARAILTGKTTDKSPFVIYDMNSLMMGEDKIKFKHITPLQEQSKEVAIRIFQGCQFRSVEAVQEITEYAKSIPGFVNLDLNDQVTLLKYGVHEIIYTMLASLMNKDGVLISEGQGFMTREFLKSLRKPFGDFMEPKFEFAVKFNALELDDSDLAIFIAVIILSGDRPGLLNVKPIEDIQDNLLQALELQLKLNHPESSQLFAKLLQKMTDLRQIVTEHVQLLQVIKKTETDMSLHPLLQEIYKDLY

[2] = Solubility of the compound in DMSO; assay type: physicochemical
[3] = biological target: T2, Peroxisome proliferator-activated receptor gamma (Homo sapiens, UniProt P37231); assay: Displacement of fluormone from human PPARgamma LBD expressed in Escherichia coli BL21 DE3 by fluorescence polarization assay
T2 sequence (P37231 whole entry): T1 sequence (whole entry)

For C[C@@H](Oc1ccc(/C=C2/C(=O)N=C(O)N(c3cccc(Br)c3)C2=O)cc1)C(=O)O, the Tm [1] was 46 °C and the solubility [2] was “soluble”.
In the case of Cc1ccccc1Nc1nc(N)nc(CSc2nc3ccccc3c(=O)[nH]2)n1, the Tm [1] is reported as 46 °C and the solubility [2] is reported as “soluble”.
For CSc1ccccc1-n1nnnc1SCC(=O)O, the Tm [1] was 46 °C and the solubility [2] was “soluble”.
In the case of Cc1c(/C=C2\SC(Nc3cccc(C(=O)O)c3)=NC2=O)c2ccccc2n1C, the Tm [1] is reported as 46 °C and the solubility [2] is reported as “soluble”.
In the case of O=C(O)c1ccc(COc2ccccc2C=C2C(=O)c3ccccc3C2=O)cc1, the Tm [1] is reported as 53 °C, the solubility [2] is reported as “soluble” and the IC50 [3] is reported as 1.14 µM.
With CCOc1cc(/C=C2/SC(Nc3cccc(C(=O)O)c3)=NC2=O)ccc1OC the solubility [2] was “Insoluble”.
In the case of Cc1ccc(Cn2c(=N)n(CC(=O)O)c3ccccc32)cc1, the Tm [1] is reported as 46 °C and the solubility [2] is reported as “soluble”.
For O=C(CN1C(=O)c2ccccc2C1=O)NCc1ccc(C(=O)O)cc1, the Tm [1] was 46 °C and the solubility [2] was “soluble”.
For O=C(O)c1ccc(-n2nnnc2SCc2ccccc2Br)cc1, the Tm [1] was 46 °C, the solubility [2] was “soluble” and the IC50 [3] was 5.13 µM.
With CN1CCN(S(=O)(=O)c2ccc(SCC(=O)O)nc2)CC1 the solubility [2] was “Insoluble”.
For O=C(Nc1ccc(C(=O)O)cc1)/C(=C\c1ccc2c(c1)OCO2)NC(=O)c1ccc(Br)o1, the Tm [1] was 46 °C and the solubility [2] was “soluble”.
CN(CCOc1ccc(CC2SC(=O)NC2=O)cc1)c1ccccn1 (configuration not stated) showed a Tm [1] of 49 °C.
With O=C(O)Cn1ccc2cc(OCc3ccccc3)ccc21 the Tm [1] was 46 °C and the solubility [2] was “soluble”.
In the case of O=C(O)Cn1c(SCCOc2ccc3ccccc3c2)nc2ccccc21, the Tm [1] is reported as 46 °C, the solubility [2] is reported as “soluble” and the IC50 [3] is reported as 2.22 µM.
In the case of Cc1ccc(S(=O)(=O)Cc2noc(CCC(=O)O)n2)cc1, the Tm [1] is reported as 46 °C and the solubility [2] is reported as “soluble”.
For COc1cccc(/C=C2\SC(=S)N(CCCC(=O)N3CCC(C(=O)O)CC3)C2=O)c1, the Tm [1] was 49 °C and the solubility [2] was “soluble”.
